Source: patent US20010000513A1, “Biphenyl butyric acids and their derivatives as inhibitors of matrix metalloproteinases” (priority 1996, published 2001)
Each block holds one molecule with its values, some of them ahead of it.

What was measured:
[1] = system: male Wistar rats, polyarthritis induced by Mycobacterium butyricum; test: Adjuvant Arthritis Model, hind paw edema; format: in vivo; details: P <0.001
Description: Polyarthritis was induced by a modified method of the procedure developed by Chang, et al., Arthritis and Rheum., 1980;23:62. Briefly, male Wistar rats (100-115 g each) received subcutaneous injection of 0.1 mL of 10 mg/mL (or 1 mg) Mycobacterium butyricum suspended in paraffin oil in the distal third of the tail, using a glass tuberculin syringe and 25 gauge needle. M. Butyricum suspension was achieved by sonication in paraffin oil for 10 minutes with the vessel immersed in ice bath. Rates were randomized after injection and placed in cages. […] The rest were randomized and separated into dosing (test) groups (N=10 per group) and control (vehicle) group (N=20). The hind paws volume and the weights of each animal in each group was recorded and served as the initial values for the study. Hind paw swelling was assessed using mercury plethysmography beginning on Day 12 and every other day till Day 22 (final assessment).
The dose volume was 10 mL/kg PO. Animals were dosed twice daily for 10 days starting on Day 12. Also, hind paw volumes were measured on Days 12, 14, 16, 18, 20, and 22 as stated above. The results are reported as % inhibition of delta edema on Day 22. Delta edema is the difference in footpad edema between the day in which animals are assessed and that on Day 12 of the study. The percent inhibition is based on a comparison of the treatment groups to the vehicle group.

[2] = system: Male Swiss-Webster mice, 0.6% acetic acid i.p.; test: Acetic Acid-Induced Hyperalgesia Model, writhing; format: in vivo; details: for % Inhibition (writhing): 1 hour before acetic acid
Description: Treatment groups (n=8) were divided so that 2 animals were placed into each of four 4″×4″×4″ adjacent plexiglass containers. Seven minutes after acid, writhing motions (abdominal contractions, concave arching of the back, and/or hindleg stretching) were tallied for 5 minutes. The ID40 value was calculated by linear regression analysis.

[3] = system: mice sensitized with a fragment of mouse myelin basic protein to induce EAE; test: Experimental Autoimmune Encephalomyelitis (EAE); format: in vivo
Description: Compounds were administered by oral route to mice sensitized with a fragment of mouse myelin basic protein to induce EAE. Mice were dosed daily for 21 days beginning 4 hours before sensitization on day one. EAE responses of compound treated groups were compared to those of a control group of mice sensitized identically and a sham-sensitized group treated with vehicle. The values reported in Table 2 include responses during compound treatment only.
Sensitization Female mice [PL/J(FI)×SJL/J, Jackson Labs], 11 weeks old, were sensitized s.c. (0.05 cc×2) at the base of the tail with an emulsion containing equal parts of mouse myelin basic protein (MBP) fragment (amino acids 1-9 of the N-terminus of MBP) in saline and Difco Complete Freund's Adjuvant (CFA) fortified with heat killed desiccated Mycobacteria tuberculosis (MT). Each mouse received 300 μg of MBP fragment (230 μg free base) and 200 μg MT followed by retrobulbar (IV) injection of 200 ng of B. pertussis toxin in 0.2 cc of saline. Two days later mice receive a second injection of B. pertussis toxin.
Neurological Assessment Animals were weighed and evaluated for symptoms of EAE before and frequently after sensitization. EAE score: (0.5=slight limp tail, 1=limp tail or slow to right, 1.5=slight limp tail and slow to right, 2=paresis/mild paralysis or incontinence, 2.5=mild paralysis and slow to right or complete paralysis (one hind limb), 3=hind limb paralysis (both), 3.5=hind limb paralysis (both) and limp torso; 4=additional fore limb paralysis, 4.5=head movement only, 5=moribund, death after previous EAE symptoms). Evaluators were blinded as to compound treatments and previous behavioral scores.
Disease symptoms are compared among groups for EAE severity, incidence, time to onset, cumulative score, and deaths. Peak EAE score: the mean of the highest score for each mouse in a group, independent of duration of symptoms; EAE incidence: the mean number of mice showing symptoms of EAE, defined as having EAE scores on any 3 consecutive days that total “≧3.0”. EAE deaths: an animal that died must have presented previous evidence of an EAE score greater than 0.5; EAE onset: the first of a 3-day series scoring a total of ≧3.0.
A Cumulative EAE score is calculated for each animal. A mean of all animals' cumulative scores is then determined for each day.
Experimental groups were assumed to be similar and were compared for statistical significance by a 2-tailed T-Test (p≦0.05).
Compound was homogenized manually with an aliquot of warm vehicle (1.0% hydroxypropyl-methylcellulose [Sigma] in water) in glass mortar tubes and homogenizing pestle. The smooth compound paste was gradually suspended in vehicle. Mice were dosed with compound and/or vehicle, 10 mL/kg in groups of ten. A sham-sensitized group was similarly dosed with vehicle.

[4] = system: Female Lewis rats sensitized to streptococcal cell walls; test: Streptococcal Cell Wall Model (SCW), paw swelling; format: in vivo; details: rat SCW flare
Description: Female Lewis rats (125-150 g) are sensitized to the 100 P preparation of streptococcal cell walls (obtained from Lee Labs, Greyson, Ga.) with an intra-articular injection of 10 μL SCW containing 6 μg of the cell wall particles into one of the ankle joints. The contralateral ankle joint is injected with an equal volume of saline. Twenty-one days later, animals are placed in treatment groups (7 per group) according to their immediate response to the intra-articular injection of SCW (to obtain groups with equivalent responses). A control group is injected with saline. Each animal is then lightly anesthetized with ether, the paw volumes of each hind paw are determined by mercury plethysmography, and the animals are injected IV via the tail vein with a 0.25-mL dose of SCW containing 100 μg of the 100 P cell wall particles. Each group of rats receives an oral dose of compound for 7 days in an appropriate dosing vehicle beginning on Day 21. Paw swelling is determined by subtracting the paw volume of the saline injected ankle from the SCW sensitized ankle. Percent inhibition is calculated by comparing the compound treatment group with the control group. A one-way analysis of variance with a Dunnett's test for multiple comparisons is used for determination of statistical power. Rats were sensitized 21 days prior to initiating the flare response by systemic SCW. […] Paw volume was measured 24 hours after the first administration. Numbers represent the mean percent inhibition of swelling from 10 animals/treatment group.

SMILES: CN(C)N=C(CCC(=O)O)c1ccc(-c2ccc(Cl)cc2)cc1 [Example 3, 4-(4′-Chloro-biphenyl-4-yl)-4-(dimethylhydrazono)-butyric acid]
- melting point: 158 to 160 °C

SMILES: O=C(O)CCC(=NO)c1ccc(-c2ccc(Cl)cc2)cc1 [Example 1, 4-(4′-Chloro-biphenyl−4-yl)-4-hydroxyimino-butyric acid]
- % Inhibition of delta edema on Day 22 ([1]; 3.0 mg/kg bid PO for 10 days from Day 12): 68.1%
- % Inhibition of delta edema on Day 22 ([1]; 10.0 mg/kg bid PO for 10 days from Day 12): 84.4%
- % Inhibition of delta edema on Day 22 ([1]; 30.0 mg/kg bid PO for 10 days from Day 12): 99.9%
- % Inhibition (writhing) ([2]; 0.03 mg/kg oral): 7%
- % Inhibition (writhing) ([2]; 0.1 mg/kg oral): 26%
- % Inhibition (writhing) ([2]; 0.3 mg/kg oral): 37%
- % Inhibition (writhing) ([2]; 1 mg/kg oral): 41%
- % Inhibition (writhing) ([2]; 10 mg/kg oral): 65%
- ID40 ([2]; oral, calculated by linear regression analysis): 0.65 mg/kg
- effect on EAE cumulative score ([3]; 50 mg/kg oral): reduced the EAE cumulative score
- EAE Onset ([3]; 50 mg/kg oral daily for 21 days, control 12.2 ± 0.9, p ≦0.05 vs control): 16.2 ± 1.0 days
- EAE Cumulative Score ([3]; 50 mg/kg oral daily for 21 days, control 31.6 ± 1.7, p ≦0.05 vs control): 17.9 ± 2.8
- EAE Deaths ([3]; 50 mg/kg oral daily for 21 days, during compound treatment, control 2/10): 0/10
- EAE Incidence ([3]; 50 mg/kg oral daily for 21 days, mice with EAE/group, control 10/10): 9/10
- Peak EAE Score ([3]; 50 mg/kg oral daily for 21 days, responses during compound treatment only, control 4.2 ± 0.1): 3.8 ± 0.3
- EAE-induced deaths to Day 43 ([3]; 50 mg/kg oral, to Day 43): no EAE-induced deaths
- delay of the onset of EAE ([3]; dosed at 50 mg/kg oral): 4 days
- % Inhibition at Day 4 (paw swelling) ([4]; 3 mg/kg bid oral): 71%
- % Inhibition at Day 4 (paw swelling) ([4]; 10 mg/kg bid oral): 86%
- % Inhibition at Day 4 (paw swelling) ([4]; 30 mg/kg bid oral): 86%

SMILES: O=C(O)CCC(=NO)c1ccc(-c2ccc(Br)cc2)cc1 [Example 2, 4-(4′-Bromo-biphenyl-4-yl)-4-hydroxyimino-butyric acid]
- melting point: 175 to 176 °C

SMILES: CON=C(CCC(=O)[O-])c1ccc(-c2ccc(Cl)cc2)cc1.[Na+] [Example 8, 4-(4′-Chloro-biphenyl-4-yl)-4-methoxyimino-butyric acid, sodium salt]
- melting point: 234 to 238 °C

SMILES: CON=C(CCC(=O)O)c1ccc(-c2ccc(Cl)cc2)cc1 [Example 9, 4-(4′-Chloro-biphenyl-4-yl)-4-methoxyimino-butyric acid]
- melting point: 183 to 186 °C

SMILES: O=C(O)CCC(=NO)c1ccc(-c2ccc(Cl)cc2F)cc1 [Example 10, 4-(4′-Chloro-2′-fluoro-biphenyl-4-yl)-4-hydroxyimino-butyric acid]
- melting point: 147.5 to 149.5 °C

More lines, now with the values ahead:

- melting point: 157 to 160 °C
SMILES: COc1ccc(-c2ccc(C(CCC(=O)O)=NO)cc2)cc1 [Example 13, 4-Hydroxyimino-4-(4′-methoxy-biphenyl-4-yl)-butyric acid]

- melting point: 155 to 157 °C
SMILES: O=C(O)CCC(=NO)c1ccc(-c2cccc(F)c2)cc1 [Example 15, 4-(3′-Fluoro-biphenyl-4-yl)-4-hydroxyimino-butyric acid]

- melting point: 134 to 136 °C
SMILES: O=C(O)CCC(=NO)c1ccc(-c2ccc(C(F)(F)F)cc2)cc1 [Example 16, 4-Hydroxyimino-4-(4′-trifluoromethyl-biphenyl-4-yl)-butyric acid]

- melting point: 157 to 159 °C
SMILES: N#Cc1ccc(-c2ccc(C(CCC(=O)O)=NO)cc2)cc1 [Example 14, 4-(4′-Cyano-biphenyl-4-yl)-4-hydroxyimino-butyric acid]

- melting point: 162 to 164 °C
SMILES: CSc1ccc(-c2ccc(C(CCC(=O)O)=NO)cc2)cc1 [Example 17, 4-Hydroxyimino-4-(4′-methylsulfanyl-biphenyl-4-yl)-butyric acid]

- melting point: 150 to 151.5 °C
SMILES: O=C(O)CCC(=NO)c1ccc(-c2ccccc2F)cc1 [Example 11, 4-(2′-Fluoro-biphenyl-4-yl)-4-hydroxyimino-butyric acid]

- melting point: 190 to 192 °C
SMILES: O=C1CCC(c2ccc(-c3ccc(Cl)cc3)cc2)=NO1 [Example 18, 3-(4′-Chloro-biphenyl-4-yl)-4,5-dihydro-6-oxo-6H-1,2-oxazine]

- melting point: 176.5 to 177.5 °C
SMILES: Cc1ccc(-c2ccc(C(CCC(=O)O)=NO)cc2)cc1 [Example 12, 4-Hydroxyimino-4-(4′-methyl-biphenyl-4-yl)-butyric acid]
